# Measurements taken from publication PMC8063935, “Amphipathic Peptide Antibiotics with Potent Activity against Multidrug-Resistant Pathogens” (Pharmaceutics, 2021).
# Where a SMILES comes first, the peptide text is derived from it.
# Legend:
# [1] = tested on: A. baumannii C222 (tet(X6)); experiment: microbe, parasite or virus in culture; assay type: cell-based, Acinetobacter baumannii; conditions: A. baumannii C222 (tet(X6))
# Procedure: (§1) The MICs of all drugs were determined by micro-broth dilution method according to CLSI 2018 guidelines. The bacterial suspension used in the experiment was appropriate 1.5 × 10^6 colony-forming units (CFUs) per mL and mixed with the drug solution in a sterilized 96-well microtiter plate (Corning, New York, USA), then incubated at 37 °C for 16–18 h. MIC value was defined as the minimum drug concentration without visible bacteria. Meanwhile, the density of the bacteria at 600 nm was measured, and the corresponding IC50 was calculated using log (inhibitor) vs. response variable slope (four parameters) in Graphpad Prism version 8.3.0 software (San Diego, CA, USA). To assess the role of ROS production in the antibacterial activity of WW307, increasing concentrations of N-acetylcysteine (NAC) from 0 to 5 mM were added in culture medium, followed by MICs test.
# [2] = tested on: P. cibarius HNCF44W (blaNDM-1 + tet(X6)); experiment: MIC / IC50, micro-broth dilution; assay type: cell-based
# Procedure: as §1
# E. coli B2 [3] = experiment: Thermal, pH, salts, serum and protease stability (residual MIC); assay type: cell-based, Escherichia coli; conditions: protease precipitated with acetonitrile, then MIC test
# E. coli B2 [4] = experiment: as above; assay type: cell-based, Escherichia coli
# Procedure: (§2) In order to evaluate the influence of ions and serum on the activity of AMPs, 10 mM Na^+, K^+, Mg^2+, 10% Dulbecco’s Modified Eagle Medium (DMEM) and fetal bovine serum (FBS) were added into Mueller-Hinton broth (MHB) culture medium for subsequent MIC tests.
# (§3) Drugs were incubated at different temperatures (range from 40 to 121 °C) and pH (range from 2 to 12) for 1 h, then adjust back to original pH, following MIC test to evaluate their residual activity. To evaluate the protease stability, pepsin, trypsin, and papain were mixed with WW307 to achieve a final concentration of 1 mM, and then incubated at 37 °C for 1 h. After incubation, the remaining protease was precipitated using acetonitrile and removed by centrifugation at 3000× g, following for MIC test.
# [5] = tested on: E. coli B2 (mcr-1 + blaNDM-5); experiment: microbe, parasite or virus in culture; assay type: cell-based, Escherichia coli; conditions: E. coli B2 (mcr-1 + blaNDM-5)
# Procedure: as §1
# E. coli G92 (mcr-1) = experiment: microbe, parasite or virus in culture; assay type: cell-based, Escherichia coli; conditions: E. coli G92 (mcr-1)
# Procedure: as §1
# E. coli 1F28 (tet(X4)) = experiment: microbe, parasite or virus in culture; assay type: cell-based, Escherichia coli
# Procedure: as §1
# Sheep RBCs = experiment: Hemolysis analysis; assay type: cell-based; conditions: 8% sheep red blood cell suspension, 37 °C, 1 h, released hemoglobin at 576 nm; PBS negative, ddH2O positive control
# Procedure: The hemolytic activity on all peptides was evaluated based on previous report. Briefly, fresh Sheep RBCs were washed twice with phosphate buffer (PBS), and then 8% red blood cell suspension was prepared. The increasing concentrations of AMPs and melittin were mixed with 8% red blood cell suspension, respectively, and incubated at 37 °C for 1 h. The sterilized PBS and double-distilled water (ddH2O) were used as blank and positive control, respectively. Afterwards, the supernatant was centrifuged to measure the absorption of released hemoglobin at 576 nm by an Infinite M200 Microplate reader (Tecan, Männedorf, Switzerland). The corresponding hemolysis rate was calculated.
# MRSA T144 [6] = experiment: Thermal, pH, salts, serum and protease stability (residual MIC); assay type: cell-based, Staphylococcus aureus; conditions: protease precipitated with acetonitrile, then MIC test
# E. coli CP131 (mcr-3) = experiment: MIC / IC50, micro-broth dilution; assay type: cell-based, Escherichia coli; conditions: E. coli CP131 (mcr-3)
# Procedure: as §1
# E. coli C3 (blaNDM-1) = experiment: MIC / IC50, micro-broth dilution; assay type: cell-based, Escherichia coli
# Procedure: as §1
# E. coli G6 (blaNDM-5) = experiment: MIC / IC50, micro-broth dilution; assay type: cell-based, Escherichia coli
# Procedure: as §1
# S. aureus G16 (RIF^R) = experiment: microbe, parasite or virus in culture; assay type: cell-based, Staphylococcus aureus; conditions: S. aureus G16 (RIF^R)
# Procedure: as §1
# MRSA T144 [7] = experiment: microbe, parasite or virus in culture; assay type: cell-based, Staphylococcus aureus
# Procedure: as §1
# MRSA T144 [8] = experiment: Thermal, pH, salts, serum and protease stability (residual MIC); assay type: cell-based, Staphylococcus aureus
# Procedure: as §2, §3
# [9] = OD600 of micro-broth dilution plates, four-parameter fit
# [10] = micro-broth dilution, CLSI 2018, ~1.5 × 10^6 CFUs per mL, 37 °C, 16–18 h
# [11] = WW307 incubated with trypsin (1 mg/mL) at 37 °C for 1 h
# [12] = 10% fetal bovine serum (FBS) added into MHB
# [13] = WW307 incubated at 40 °C for 1 h before MIC test
# [14] = WW307 incubated at 60 °C for 1 h before MIC test
# [15] = WW307 incubated at 80 °C for 1 h before MIC test
# [16] = WW307 incubated at 100 °C for 1 h before MIC test
# [17] = WW307 incubated at 121 °C for 1 h before MIC test
# [18] = WW307 incubated at pH 2 for 1 h, adjusted back to original pH, then MIC test
# [19] = WW307 incubated at pH 4 for 1 h, adjusted back to original pH, then MIC test
# [20] = WW307 incubated at pH 6 for 1 h, adjusted back to original pH, then MIC test
# [21] = WW307 incubated at pH 8 for 1 h, adjusted back to original pH, then MIC test
# [22] = WW307 incubated at pH 10 for 1 h, adjusted back to original pH, then MIC test
# [23] = WW307 incubated at pH 12 for 1 h, adjusted back to original pH, then MIC test
smiles,measurement,setting,value
CC(C)[C@H](NC(=O)[C@H](Cc1c[nH]c2ccccc12)NC(=O)[C@H](Cc1c[nH]c2ccccc12)NC(=O)[C@H](Cc1c[nH]c2ccccc12)NC(=O)[C@H](Cc1c[nH]c2ccccc12)NC(=O)[C@H](CCCNC(=N)N)NC(=O)[C@H](CCCNC(=N)N)NC(=O)[C@@H](N)CCCNC(=N)N)C(N)=O [WW307] (H-RRRWWWWV-NH2),IC50,[1]; [9],2.15 µg/mL
same,MIC,[1]; [10],4 µg/mL
same,IC50,[2]; [9],2.21 µg/mL
same,MIC,[2]; [10],2 µg/mL
same,MIC after papain,E. coli B2 [3]; WW307 incubated with papain (1 mg/mL) at 37 °C for 1 h,>128 µg/mL
same,MIC after trypsin,E. coli B2 [3]; [11],>128 µg/mL
same,MIC with K^+,E. coli B2 [4]; 10 mM K^+ added into MHB,4 µg/mL
same,MIC with Mg^2+,E. coli B2 [4]; 10 mM Mg^2+ added into MHB,16 µg/mL
same,MIC with Na^+,E. coli B2 [4]; 10 mM Na^+ added into MHB,4 µg/mL
same,MIC with DMEM (10%),E. coli B2 [4]; 10% DMEM added into MHB,8 µg/mL
same,MIC with Serum (10%),E. coli B2 [4]; [12],8 µg/mL
same,MIC after 40 °C,E. coli B2 [4]; [13],4 µg/mL
same,MIC after 60 °C,E. coli B2 [4]; [14],4 µg/mL
same,MIC after 80 °C,E. coli B2 [4]; [15],4 µg/mL
same,MIC after 100 °C,E. coli B2 [4]; [16],4 µg/mL
same,MIC after 121 °C,E. coli B2 [4]; [17],4 µg/mL
same,MIC after pH 2,E. coli B2 [4]; [18],4 μg/mL
same,MIC after pH 4,E. coli B2 [4]; [19],4 μg/mL
same,MIC after pH 6,E. coli B2 [4]; [20],4 μg/mL
same,MIC after pH 8,E. coli B2 [4]; [21],4 μg/mL
same,MIC after pH 10,E. coli B2 [4]; [22],4 μg/mL
same,MIC after pH 12,E. coli B2 [4]; [23],8 μg/mL
same,MIC after pepsin,"E. coli B2 [4]; WW307 incubated with pepsin (1 mg/mL) at 37 °C for 1 h, protease precipitated with acetonitrile, then MIC test",4 µg/mL
same,"MIC, Control",E. coli B2 [4]; untreated WW307,4 µg/mL
same,IC50,[5]; [9],4.18 µg/mL
same,MIC,[5]; [10],4 µg/mL
same,IC50,E. coli G92 (mcr-1); [9],2.18 µg/mL
same,MIC,E. coli G92 (mcr-1); [10],4 µg/mL
same,IC50,E. coli 1F28 (tet(X4)); [9],2.13 µg/mL
same,MIC,E. coli 1F28 (tet(X4)); [10],4 µg/mL
same,HL50 (peptide concentration that causes 50% hemolysis),Sheep RBCs,> 128 µg/mL
same,MIC after pepsin,MRSA T144 [6]; WW307 incubated with pepsin (1 mg/mL) at 37 °C for 1 h,4 µg/mL
same,MIC after trypsin,MRSA T144 [6]; [11],>128 µg/mL
same,IC50,E. coli CP131 (mcr-3); [9],2.07 µg/mL
same,MIC,E. coli CP131 (mcr-3); [10],4 µg/mL
same,IC50,E. coli C3 (blaNDM-1); [9],1.82 µg/mL
same,MIC,E. coli C3 (blaNDM-1); [10],4 µg/mL
same,IC50,E. coli G6 (blaNDM-5); [9],2.25 µg/mL
same,MIC,E. coli G6 (blaNDM-5); [10],8 µg/mL
same,IC50,S. aureus G16 (RIF^R); [9],0.52 µg/mL
same,MIC,S. aureus G16 (RIF^R); [10],1 µg/mL
same,IC50,MRSA T144 [7]; [9],1.03 µg/mL
same,MIC,MRSA T144 [7]; [10],4 µg/mL
same,MIC with K^+,MRSA T144 [8]; 10 mM K^+ added into MHB,4 µg/mL
same,MIC with Mg^2+,MRSA T144 [8]; 10 mM Mg^2+ added into MHB,16 µg/mL
same,MIC with Na^+,MRSA T144 [8]; 10 mM Na^+ added into MHB,4 µg/mL
same,MIC with DMEM (10%),MRSA T144 [8]; 10% DMEM added into MHB,8 µg/mL
same,MIC with Serum (10%),MRSA T144 [8]; [12],8 µg/mL
same,MIC after 40 °C,MRSA T144 [8]; [13],4 µg/mL
same,MIC after 60 °C,MRSA T144 [8]; [14],4 µg/mL
same,MIC after 80 °C,MRSA T144 [8]; [15],4 µg/mL
same,MIC after 100 °C,MRSA T144 [8]; [16],4 µg/mL
same,MIC after 121 °C,MRSA T144 [8]; [17],4 µg/mL
same,MIC after pH 2,MRSA T144 [8]; [18],4 μg/mL
same,MIC after pH 4,MRSA T144 [8]; [19],4 μg/mL
same,MIC after pH 6,MRSA T144 [8]; [20],4 μg/mL
same,MIC after pH 8,MRSA T144 [8]; [21],4 μg/mL
same,MIC after pH 10,MRSA T144 [8]; [22],4 μg/mL
same,MIC after pH 12,MRSA T144 [8]; [23],4 μg/mL
same,MIC after papain,"MRSA T144 [8]; WW307 incubated with papain (1 mg/mL) at 37 °C for 1 h, protease precipitated with acetonitrile, then MIC test",>128 µg/mL
same,"MIC, Control",MRSA T144 [8]; untreated WW307,4 µg/mL
